The values below come from ChEMBL document CHEMBL1154627, “Structure-activity relationship studies of targeting ligands against breast cancer cells” (J Med Chem, 2009).

Active and inactive are the calls of the source. The calls are words filed in the database; no cut-off is given here.

In the first test the test system is Mus musculus. Nature of the test: In vivo binding affinity to alpha3 integrin receptor in human MDA-MB-231 cells xenografted in iv dosed athymic nude mouse nu/nu by fluorescent imaging. It counts as functional, organism-based. A general note: A xenograft is tissue or cells of one species grown in another, often human tumour cells in immunodeficient mice.
With `NC(=O)C[C@@H]1NC(=O)[C@@H]2C[C@@H](O)CN2C(=O)CNC(=O)[C@H](c2cc(F)cc(F)c2)NC(=O)CNC(=O)[C@@H](CC(=O)O)NC(=O)[C@H](N)CSSC[C@H](C(N)=O)NC1=O`, the outcome was Active.

System in another test: not listed separately
The experiment in a line: Binding affinity to alpha3beta1 integrin receptor in human MDA-MB-231 cells assessed as inhibition of cell binding to immobilized LXY1 peptide by cell adherence assay. It counts as cell-based.
In general, IC50 refers to the midpoint of a concentration-inhibition curve. `NC(=O)C[C@@H]1NC(=O)[C@@H]2C[C@@H](O)CN2C(=O)CNC(=O)[C@H](c2cc(F)cc(F)c2)NC(=O)CNC(=O)[C@@H](CC(=O)O)NC(=O)[C@H](N)CSSC[C@H](C(N)=O)NC1=O`: the 50% inhibitory concentration (IC50) amounted to 2.1 µM.

In the case of `CCCCCCN(CCCCCC)[C@@H]1CSSC[C@H](C(N)=O)NC(=O)[C@H](CC(N)=O)NC(=O)[C@@H]2C[C@@H](O)CN2C(=O)CNC(=O)[C@H](Cc2ccc(O)c([N+](=O)[O-])c2)NC(=O)CNC(=O)[C@@H](CC(=O)O)NC1=O`, the IC50 was over 25 µM.

`CCCCNC(=O)N[C@@H]1CSSC[C@H](C(N)=O)NC(=O)[C@H](CC(N)=O)NC(=O)[C@@H]2C[C@@H](O)CN2C(=O)CNC(=O)[C@H](Cc2ccc(O)c([N+](=O)[O-])c2)NC(=O)CNC(=O)[C@@H](CC(=O)O)NC1=O`: the IC50 is over 25 µM.

With `NC(=O)C[C@@H]1NC(=O)[C@@H]2C[C@@H](O)CN2C(=O)CNC(=O)[C@H](Cc2ccc(O)c([N+](=O)[O-])c2)NC(=O)CNC(=O)[C@@H](CC(=O)O)NC(=O)[C@H](NCC2CCCCC2)CSSC[C@H](C(N)=O)NC1=O`, the IC50 is over 25 µM.

`NC(=O)C[C@@H]1NC(=O)[C@@H]2C[C@@H](O)CN2C(=O)CNC(=O)[C@@H]2C[C@@H](c3ccccc3)CN2C(=O)CNC(=O)[C@@H](CC(=O)O)NC(=O)[C@H](N)CSSC[C@H](C(N)=O)NC1=O`: the IC50 was over 25 µM.

Regarding `NC(=O)C[C@@H]1NC(=O)[C@@H]2C[C@@H](O)CN2C(=O)CNC(=O)[C@H](c2cccc(C(F)(F)F)c2)NC(=O)CNC(=O)[C@@H](CC(=O)O)NC(=O)[C@H](N)CSSC[C@H](C(N)=O)NC1=O`, the half-maximal inhibitory concentration (IC50) came out at 11.9 µM.

On to `CCCCCCN[C@@H]1CSSC[C@H](C(N)=O)NC(=O)[C@H](CC(N)=O)NC(=O)[C@@H]2C[C@@H](O)CN2C(=O)CNC(=O)[C@H](Cc2ccc(O)c([N+](=O)[O-])c2)NC(=O)CNC(=O)[C@@H](CC(=O)O)NC1=O`, for which the IC50 was over 25 µM.

On to `NC(=O)C[C@@H]1NC(=O)[C@@H]2C[C@@H](O)CN2C(=O)CNC(=O)[C@H](Cc2ccc(O)c([N+](=O)[O-])c2)NC(=O)CNC(=O)[C@@H](CC(=O)O)NC(=O)[C@H](NC(=O)Nc2ccc(-c3ccccc3)cc2)CSSC[C@H](C(N)=O)NC1=O`, for which the concentration for half-maximal inhibition (IC50) was over 25 µM.

In the case of `NC(=O)C[C@@H]1NC(=O)[C@@H]2C[C@@H](O)CN2C(=O)CNC(=O)[C@H](c2ccc(F)c(F)c2)NC(=O)CNC(=O)[C@@H](CC(=O)O)NC(=O)[C@H](N)CSSC[C@H](C(N)=O)NC1=O`, the IC50 stood at 6.3 µM.

For the molecule `NC(=O)C[C@@H]1NC(=O)[C@@H]2C[C@@H](O)CN2C(=O)CNC(=O)[C@H](Cc2ccc(O)c([N+](=O)[O-])c2)NC(=O)CNC(=O)[C@@H](CC(=O)O)NC(=O)[C@H](NCc2ccc(C(F)(F)F)cc2)CSSC[C@H](C(N)=O)NC1=O`, the IC50 is over 25 µM.

As to `NC(=O)C[C@@H]1NC(=O)[C@@H]2C[C@@H](O)CN2C(=O)CNC(=O)[C@H](Cc2ccc(O)c(I)c2)NC(=O)CNC(=O)[C@@H](CC(=O)O)NC(=O)[C@H](N)CSSC[C@H](C(N)=O)NC1=O`, the IC50 was over 25 µM.

For the molecule `NC(=O)C[C@@H]1NC(=O)[C@@H]2C[C@@H](O)CN2C(=O)CNC(=O)[C@H](Cc2ccc(O)c([N+](=O)[O-])c2)NC(=O)CNC(=O)[C@@H](CC(=O)O)NC(=O)[C@H](NC(=O)Nc2ccc(C(F)(F)F)cc2)CSSC[C@H](C(N)=O)NC1=O`, the 50% inhibitory concentration (IC50) was over 25 µM.

As to `NC(=O)C[C@@H]1NC(=O)[C@@H]2C[C@@H](O)CN2C(=O)CNC(=O)[C@H](c2ccccc2F)NC(=O)CNC(=O)[C@@H](CC(=O)O)NC(=O)[C@H](N)CSSC[C@H](C(N)=O)NC1=O`, the IC50 is over 25 µM.

Turning to `CN(C)c1ccc(CN[C@@H]2CSSC[C@H](C(N)=O)NC(=O)[C@H](CC(N)=O)NC(=O)[C@@H]3C[C@@H](O)CN3C(=O)CNC(=O)[C@H](Cc3ccc(O)c([N+](=O)[O-])c3)NC(=O)CNC(=O)[C@@H](CC(=O)O)NC2=O)cc1`, the half-inhibitory concentration (IC50) is over 25 µM.

Turning to `NC(=O)C[C@@H]1NC(=O)[C@@H]2C[C@@H](O)CN2C(=O)CNC(=O)[C@H](Cc2cc(I)c(O)c(I)c2)NC(=O)CNC(=O)[C@@H](CC(=O)O)NC(=O)[C@H](N)CSSC[C@H](C(N)=O)NC1=O`, the IC50 is over 25 µM.

For the molecule `NC(=O)C[C@@H]1NC(=O)[C@@H]2C[C@@H](O)CN2C(=O)CNC(=O)[C@@H]2C=CCN2C(=O)CNC(=O)[C@@H](CC(=O)O)NC(=O)[C@H](N)CSSC[C@H](C(N)=O)NC1=O`, the half-maximal inhibitory concentration (IC50) came to 15.3 µM.

As to `CC1(C)SSC(C)(C)[C@H](C(N)=O)NC(=O)[C@H](CC(N)=O)NC(=O)[C@@H]2C[C@@H](O)CN2C(=O)CNC(=O)[C@H](Cc2ccc(O)c([N+](=O)[O-])c2)NC(=O)CNC(=O)[C@@H](CC(=O)O)NC(=O)[C@@H]1N`, the IC50 is over 25 µM.

Take `COc1cc(C[C@@H]2NC(=O)CNC(=O)[C@@H](CC(=O)O)NC(=O)[C@H](N)CSSC[C@H](C(N)=O)NC(=O)[C@H](CC(N)=O)NC(=O)[C@@H]3C[C@@H](O)CN3C(=O)CNC2=O)ccc1O`: the IC50 was over 25 µM.

The subject of another test is Mus musculus. The experiment in a line: Ex vivo binding affinity to alpha3 integrin receptor in human MDA-MB-231 cells xenografted in iv dosed athymic nude mouse nu/nu by fluorescent imaging. It counts as functional, organism-based.
For `NC(=O)C[C@@H]1NC(=O)[C@@H]2C[C@@H](O)CN2C(=O)CNC(=O)[C@H](c2cc(F)cc(F)c2)NC(=O)CNC(=O)[C@@H](CC(=O)O)NC(=O)[C@H](N)CSSC[C@H](C(N)=O)NC1=O`, the result was Active.

A further test has as its target T1, Integrin alpha-3 (Homo sapiens) (UniProt P26006).
T1 sequence (whole entry): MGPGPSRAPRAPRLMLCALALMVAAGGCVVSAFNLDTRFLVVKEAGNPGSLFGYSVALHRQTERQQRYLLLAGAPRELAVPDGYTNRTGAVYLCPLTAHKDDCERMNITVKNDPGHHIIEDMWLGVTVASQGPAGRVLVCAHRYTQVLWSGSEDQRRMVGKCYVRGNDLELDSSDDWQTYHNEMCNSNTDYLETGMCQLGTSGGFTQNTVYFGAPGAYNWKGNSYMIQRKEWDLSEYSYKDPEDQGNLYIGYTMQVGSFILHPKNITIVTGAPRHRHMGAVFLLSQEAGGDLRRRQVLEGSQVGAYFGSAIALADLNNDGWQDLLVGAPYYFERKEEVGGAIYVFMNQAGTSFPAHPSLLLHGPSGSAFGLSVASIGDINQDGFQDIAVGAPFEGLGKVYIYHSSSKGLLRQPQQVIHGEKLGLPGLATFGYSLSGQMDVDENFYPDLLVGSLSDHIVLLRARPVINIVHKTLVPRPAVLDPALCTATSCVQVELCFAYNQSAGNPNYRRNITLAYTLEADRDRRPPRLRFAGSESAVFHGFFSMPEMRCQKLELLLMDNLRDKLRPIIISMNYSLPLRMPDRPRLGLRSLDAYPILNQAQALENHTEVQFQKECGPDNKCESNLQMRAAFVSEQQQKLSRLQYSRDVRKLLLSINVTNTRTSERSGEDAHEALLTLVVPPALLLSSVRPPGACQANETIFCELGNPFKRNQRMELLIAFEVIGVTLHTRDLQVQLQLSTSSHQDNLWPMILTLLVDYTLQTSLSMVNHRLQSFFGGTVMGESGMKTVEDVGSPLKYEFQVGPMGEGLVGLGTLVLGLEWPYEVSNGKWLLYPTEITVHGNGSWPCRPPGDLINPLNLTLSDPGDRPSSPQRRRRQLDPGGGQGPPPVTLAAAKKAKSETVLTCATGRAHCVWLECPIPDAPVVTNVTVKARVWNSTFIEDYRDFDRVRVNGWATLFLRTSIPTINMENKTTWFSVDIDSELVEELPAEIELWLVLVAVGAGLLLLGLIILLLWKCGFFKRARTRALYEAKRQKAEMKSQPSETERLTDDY
Nature of the test: Binding affinity to alpha3 integrin receptor in human MDA-MB-231 cells by fluorescent microscopy. It counts as cell-based.
Turning to `NC(=O)C[C@@H]1NC(=O)[C@@H]2C[C@@H](O)CN2C(=O)CNC(=O)[C@H](c2cc(F)cc(F)c2)NC(=O)CNC(=O)[C@@H](CC(=O)O)NC(=O)[C@H](N)CSSC[C@H](C(N)=O)NC1=O`, the result was Active.
